The record followed here is patent US6677310B1, “Ring-expanded nucleosides and nucleotides” (Nabi, priority 1999, dated 2004).

Series [1] addresses T1, adenosine deaminase from calf intestinal mucosa (Bos taurus, UniProt P56658).
T1 construct: against adenosine deaminase from calf intestinal mucosa; from tissue; host or cells: calf intestinal mucosa
The experiment in a line: Adenosine deaminase assay (Example 17). Format: biochemical. The conditions noted are these: Lineweaver-Burk plots; with and without preincubation. As to the method: Inhibition of adenosine deaminase (ADA) by Compound 17-1 and Compound 17-2 (see FIG. 13 for chemical structures; note that structure 1 FIG. 13 is the same as that in figure except that it is written in an anti-conformation in the former) was investigated in vitro against adenosine deaminase from calf intestinal mucosa in a 50 mM phosphate buffer (pH=7.4) at 25° C., by spectro-photometrically monitoring the rate of hydrolysis of substrate adenosine at 265 nm. Stock solutions of the substrate, enzyme, and inhibitors were prepared using a 50 mM phosphate buffer (pH 7.4). The enzyme kinetics was followed by measuring the change in optical density (decrease in absorbance) per minute of the substrate adenosine. By keeping the concentration of the inhibitor constant, and by varying the substrate concentration, a set of kinetic data was obtained. Additional sets of data were generated using different concentrations of the inhibitor. […]
(a) pre-incubation of the enzyme with the inhibitor; here the enzyme (ADA 10 μL) and inhibitor were preincubated for 10 min in a calculated amount of phosphate buffer (50 mM, pH 7.5 ) at 25° C. and the reaction was initiated by the addition of substrate, adenosine, and (b) without preincubation; here the reaction was started by addition of ADA (10 μL) to a mixture of adenosine and inhibitor in the phosphate buffer at 25° C. […]

Series [2] has as its target T2, bacteriophage T7 RNA polymerase (Escherichia phage T7, UniProt P00573).
T2 construct: purchased Promega P2075
Put plainly: Transcription catalyzed by T7 RNA polymerase. Format: biochemical. As to the method:
To show whether the “fat” nucleotide Compound 15-2 (FNTP) is incorporated into RNA during transcription, experiments were performed using bacteriophage T7 RNA polymerase (RNAP) and a synthetic 42-mer DNA template shown below that is annealed to a 17-nucleotide promoter specific for T7 RNAP. This promoter-template enables the synthesis of 25-mer RNA, and the purine analogue may be incorporated in positions +1, +11, +13, +15, +21, +22, and +23.
Transcription reaction conditions were optimized with the use of ^32P CTP for labeling RNA transcripts. Polyacrylimide gel electrophoresis of the transcription products obtained from the 42-mer template, using 1 mM each of four natural NTPs, reveled a 25-mer RNA as the major product, together with shorter and longer labeled transcripts (FIG. 9, lane 1). The additional bands observed are consistent with the known ability of T7 RNA polymerase to add non-coded residues at the 3′-end of transcripts. (Milligan, J. F., et al., Nuc. Acids Res., 15, 8783-8798, 1987) With the use of 1 mM nucleotide Compound 15-2 (FNTP), the yield of transcription was reduced (lane 2).
With the use of a synthetic 37-mer DNA template, annealed to a 17-nucleotide promoter for T7 RNAP as shown below, a 20 nucleotide-long transcript RNA was obtained when the reaction mixture contained all four NTPs in appropriate concentrations, along with many shorter “abortive” fragments. (Milligan, J. F., et al., Nuc. Acids Res., 15, 8783-8798, 1987). For the reaction with modified nucleotide, typically
the concentration of the appropriate natural nucleotide was reduced. […] (Milligan, J. F., et al., Methods in Enzymol., 180, 51-63, 1989.) In the present experiments, the synthesis of RNA was compared under standard conditions (using 4 NTPs in 0.2 mM concentration each) with the synthesis of RNA by using an additional “fat” nucleoside triphosphate Compound 15-2 (FNTP) in varying (0.05-10 mM) concentrations. The reaction mixtures were incubated at 37° C. for 2 hours, and the products were denatured in a buffer containing urea. The products were separated by 20% polyacrylamide-urea gel electrophoresis and visualized by autoradiography.
Transcription samples (total volume 10 μL contained: 40 mM Tris-HCl pH 8.1 with 6 mM MgCl2, 5 mM dithiothreitol (DTT), 1 mM spermidine, 0.01% Triton-X 100, 50 μg/mL bovine serum albumin, 250 nM synthetic DNA template with a promotor for T7 RNAP, 4 units of T7 RNA polymerase, and 0.2 mM ribonucleoside triphosphates. A single α^32P-labeled NTP was added for labeling (typicallly 1 μL of 10 mCi/mL ). Inhibition assays were monitored with varying concentrations (0.05-10 mM) of nucleotide Compound 15-2. Polyacrylamide gel (20%) electrophoresis was performed on slab gels (18 cm×16 cm, or 35 cm×44 cm) containing 8M urea. […]

For the next series, the system named is NCI-H522. Format: cell-based, human. The conditions noted are these: NCI-H522 (Non-Small Cell Lung Cancer), 48 h.
In the next series the test system is HL-60(TB). Conditions: HL-60(TB) (Leukemia), 48 h.

Each structure is given as a SMILES string. Where only a bound is given, the exact number is not on record here.

T2 sequence (P00573 whole entry): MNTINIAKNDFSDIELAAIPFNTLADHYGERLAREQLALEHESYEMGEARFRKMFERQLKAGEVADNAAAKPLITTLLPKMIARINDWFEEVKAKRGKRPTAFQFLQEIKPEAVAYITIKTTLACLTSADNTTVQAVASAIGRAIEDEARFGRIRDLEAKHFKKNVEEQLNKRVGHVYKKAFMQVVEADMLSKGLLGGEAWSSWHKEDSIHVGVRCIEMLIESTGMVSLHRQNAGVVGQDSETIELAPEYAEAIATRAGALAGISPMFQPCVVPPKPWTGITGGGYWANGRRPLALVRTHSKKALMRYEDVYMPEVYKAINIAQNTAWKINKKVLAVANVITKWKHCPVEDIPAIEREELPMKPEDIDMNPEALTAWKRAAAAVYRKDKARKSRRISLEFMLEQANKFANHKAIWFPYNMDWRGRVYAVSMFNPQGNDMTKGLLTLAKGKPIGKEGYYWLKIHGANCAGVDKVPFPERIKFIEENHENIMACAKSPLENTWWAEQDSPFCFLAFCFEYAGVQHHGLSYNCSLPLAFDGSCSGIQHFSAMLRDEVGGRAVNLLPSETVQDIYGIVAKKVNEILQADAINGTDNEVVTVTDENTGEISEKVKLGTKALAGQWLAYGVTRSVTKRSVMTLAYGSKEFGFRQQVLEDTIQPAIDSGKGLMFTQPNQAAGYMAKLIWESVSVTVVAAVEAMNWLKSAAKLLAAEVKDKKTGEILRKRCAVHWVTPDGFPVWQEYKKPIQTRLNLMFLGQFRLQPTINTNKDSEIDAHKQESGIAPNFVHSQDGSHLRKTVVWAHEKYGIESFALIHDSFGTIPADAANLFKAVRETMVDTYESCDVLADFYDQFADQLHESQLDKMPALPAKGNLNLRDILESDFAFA
T1 sequence (P56658 whole entry): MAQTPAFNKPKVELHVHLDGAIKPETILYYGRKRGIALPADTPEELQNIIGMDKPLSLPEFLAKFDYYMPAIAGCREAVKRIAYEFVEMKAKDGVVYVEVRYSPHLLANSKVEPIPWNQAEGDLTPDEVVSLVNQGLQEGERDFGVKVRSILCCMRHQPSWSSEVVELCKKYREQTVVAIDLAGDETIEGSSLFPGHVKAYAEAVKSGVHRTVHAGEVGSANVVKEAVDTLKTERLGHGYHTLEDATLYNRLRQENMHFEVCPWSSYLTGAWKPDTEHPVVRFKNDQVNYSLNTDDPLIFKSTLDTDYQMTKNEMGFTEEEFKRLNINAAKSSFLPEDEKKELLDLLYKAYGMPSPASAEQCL
Experimental for HL-60(TB): Briefly, cell suspensions that were diluted according to the particular cell type and the expected target cell density (5000-40,000 cells per well based on cell growth characteristics) were added by pipette (100 μl) into 96-well microtiter plates. Inoculates were allowed a preincubation period of 24h at 37° C. for stabilization. Dilutions at twice the intended test concentrations of the test compounds were added at time zero in 100 μl aliquots to the microtiter plate wells. The plates were incubated for 48 h in 5% CO2 atmosphere and 100% humidity. The cells were assayed by using the sulforhodamine B assay (Rubinstein, L. V. et al. J. Natl. Cancer Inst. 82:1113-118, 1990; Skehan, P. et al., J. Natl. Cancer Inst. 82:1107-1112, 1990). The plates were read by a plate reader. The following parameters were calculated from the optical densities:
GI50, concentration of drug that causes 50% growth inhibition; where (T−T0)/(C−T0)×100=50

As for `N=c1nc(N)c2ncn([C@@H]3O[C@H](CO)[C@@H](O)[C@H]3O)c2c(N)n1` [Compound 14-2, 4,8-Diamino-6H-6-imino-1-β-D-ribofuranosylimidazo[4,5-e][1,3]diazepine], in series [1], the “mode of inhibition of adenosine deaminase” value was “competitive inhibitor”. In series [2] (42-mer DNA template), the “incorporation into RNA during transcription (substrate for T7 polymerase)” value is “neither incorporation nor inhibition”. Besides, in series [2] (42-mer and 37-mer DNA templates, 0.05-10 mM), the “inhibition of T7 RNA polymerase-catalyzed transcription” value is on record as “failed to cause inhibition of the transcription”.

By GI50 is commonly meant the concentration at which growth is held to half of that of the control. Higher therefore signals lower sensitivity of the cells. Usually TGI stands for the concentration at which net growth stops. High values mean less potent growth arrest, low ones more potent growth arrest. For `N=c1[nH]c(=O)c2ncn([C@@H]3O[C@H](CO)[C@@H](O)[C@H]3O)c2c(=O)[nH]1` [Compound 14-1, 6-Imino-6H-1-β-D-ribofuranosyl-4,5,7,8-tetrahydroimidazo[4,5-e][1,3]diazepine-4,8-dione], in the series on NCI-H522, the GI50 is above 100 µM and the TGI is above 100 µM. In addition, in the series with NCI-H522 (read-out: LC50 (the source's name)), the CC50 is above 100 µM.

Turning to `N=c1nc(N)c2ncn([C@@H]3O[C@H](COC(=O)c4ccccc4)[C@@H](OC(=O)c4ccccc4)[C@H]3OC(=O)c3ccccc3)c2c(N)n1` [4,8-Diamino-6H-6-imino-1(2′,3′,5′-tri-O-benzoyl-β-D-ribofuranosyl)imidazo[4,5-e][1,3]diazepine], in the series with HL-60(TB), halving of growth (GI50) required 4.01 µM and the TGI was 18.3 µM. Besides, the CC50 with HL-60(TB) (read-out: LC50) was 83.7 µM.
